Assay results: PubChem BioAssay AID330 (DTP/NCI, 2004)
Where “and” joins values, the source holds several entries; their conditions need not be identical. Equal entries are not always repeated. Toxic doses and inconclusive results are not listed.

System: P388 leukemia ip, CD2F1 mice, survival T/C
Assay: NCI In Vivo Anticancer Drug Screen. Data for tumor model P388 Leukemia (intraperitoneal) in CD2F1 (CDF1) mice
Settings: endpoint: median survival time, higher = longer survival
In short: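 Mice carrying the transplanted tumor received test compound or vehicle. Survival was recorded in each group, and the value is the treated-group measurement divided by that of the vehicle-treated control group.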

[1] = dose: 100.0 mg/kg/injection, schedule: Q01DX009 (ip), vehicle: saline with Tween-80
[2] = dose: 100.0 mg/kg/injection, schedule: Q04DX003 (ip), vehicle: saline with Tween-80
[3] = dose: 200.0 mg/kg/injection, schedule: Q01DX009 (ip), vehicle: saline with Tween-80
[4] = dose: 200.0 mg/kg/injection, schedule: Q04DX003 (ip), vehicle: saline with Tween-80
[5] = dose: 400.0 mg/kg/injection, schedule: Q01DX009 (ip), vehicle: Klucel (hydroxypropylcellulose) (HPC)
[6] = dose: 100.0 mg/kg/injection, schedule: Q01DX009 (ip), vehicle: Klucel (hydroxypropylcellulose) (HPC)
[7] = dose: 50.0 mg/kg/injection, schedule: Q01DX005 (ip), vehicle: saline with Tween-80
[8] = dose: 60.0 mg/kg/injection, schedule: Q01DX005 (ip), vehicle: saline with Tween-80
[9] = dose: 120.0 mg/kg/injection, schedule: Q01DX005 (ip), vehicle: saline with Tween-80
[10] = dose: 240.0 mg/kg/injection, schedule: Q01DX005 (ip), vehicle: saline with Tween-80
[11] = dose: 25.0 mg/kg/injection, schedule: Q01DX009 (ip), vehicle: saline
[12] = dose: 50.0 mg/kg/injection, schedule: Q01DX009 (ip), vehicle: saline
[13] = dose: 100.0 mg/kg/injection, schedule: Q01DX009 (ip), vehicle: saline
[14] = dose: 200.0 mg/kg/injection, schedule: Q01DX009 (ip), vehicle: saline
[15] = dose: 100.0 mg/kg/injection, schedule: Q01DX001 (ip), vehicle: saline with Tween-80
[16] = dose: 200.0 mg/kg/injection, schedule: Q01DX001 (ip), vehicle: saline with Tween-80
[17] = dose: 400.0 mg/kg/injection, schedule: Q01DX001 (ip), vehicle: saline with Tween-80
[18] = dose: 50.0 mg/kg/injection, schedule: Q01DX009 (ip), vehicle: Klucel (hydroxypropylcellulose) (HPC)
[19] = dose: 200.0 mg/kg/injection, schedule: Q01DX009 (ip), vehicle: Klucel (hydroxypropylcellulose) (HPC)

`Cc1c(C)c2c(c(C)c1O)CCC(C)(CCCC(C)CCCC(C)CCCC(C)C)O2` (stereo unspecified) was tested, and the T/C (dose: 42.5 mg/kg/injection, schedule: Q01DX001 (ip), vehicle: olive oil, sesame oil, peanut oil) was 104 % of control, the T/C (dose: 50.0 mg/kg/injection, schedule: Q01DX009 (ip), vehicle: olive oil, sesame oil, peanut oil) was 106 % of control and the T/C (dose: 85.0 mg/kg/injection, schedule: Q01DX001 (ip), vehicle: olive oil, sesame oil, peanut oil) was 98 % of control. The T/C (dose: 100.0 mg/kg/injection, schedule: Q01DX009 (ip), vehicle: olive oil, sesame oil, peanut oil) was 100 % of control, the T/C [1] was 100 % of control and the T/C [2] was 100 % of control. The T/C (dose: 170.0 mg/kg/injection, schedule: Q01DX001 (ip), vehicle: olive oil, sesame oil, peanut oil) was 100 % of control and 97 % of control, the T/C (dose: 200.0 mg/kg/injection, schedule: Q01DX009 (ip), vehicle: olive oil, sesame oil, peanut oil) was 103 % of control and the T/C [3] was 104 % of control. For the same molecule, the T/C [4] was 100 % of control, the T/C (dose: 340.0 mg/kg/injection, schedule: Q01DX001 (ip), vehicle: olive oil, sesame oil, peanut oil) was 91 % of control and the T/C [5] was 102 % of control. For the same molecule, the T/C (dose: 400.0 mg/kg/injection, schedule: Q01DX009 (ip), vehicle: saline with Tween-80) was 100 % of control, the T/C (dose: 400.0 mg/kg/injection, schedule: Q04DX003 (ip), vehicle: saline with Tween-80) was 87 % of control and the T/C (dose: 800.0 mg/kg/injection, schedule: Q01DX009 (ip), vehicle: Klucel (hydroxypropylcellulose) (HPC)) was 101 % of control. The T/C (dose: 1200.0 mg/kg/injection, schedule: Q01DX009 (ip), vehicle: Klucel (hydroxypropylcellulose) (HPC)) was 106 % of control, the T/C (dose: 1600.0 mg/kg/injection, schedule: Q01DX009 (ip), vehicle: Klucel (hydroxypropylcellulose) (HPC)) was 113 % of control and the T/C (dose: 42.5 IU/animal/injection, schedule: Q01DX001 (ip), vehicle: olive oil, sesame oil, peanut oil) was 102 % of control and 110 % of control. The T/C (dose: 85.0 IU/animal/injection, schedule: Q01DX001 (ip), vehicle: olive oil, sesame oil, peanut oil) was 102 % of control and 105 % of control and 107 % of control, the T/C (dose: 170.0 IU/animal/injection, schedule: Q01DX001 (ip), vehicle: olive oil, sesame oil, peanut oil) was 101 % of control and 113 % of control (2×) and the T/C (dose: 340.0 IU/animal/injection, schedule: Q01DX001 (ip), vehicle: olive oil, sesame oil, peanut oil) was 102 % of control and 104 % of control.

`O=C1c2ccccc2C(=O)C1(Br)C(Br)c1ccccc1` (stereo unspecified) was tested, and the T/C [6] was 104 % of control, the T/C (dose: 100.0 mg/kg/injection, schedule: Q04DX003 (ip), vehicle: Klucel (hydroxypropylcellulose) (HPC)) was 104 % of control and the T/C (dose: 200.0 mg/kg/injection, schedule: Q04DX003 (ip), vehicle: Klucel (hydroxypropylcellulose) (HPC)) was 95 % of control. The T/C (dose: 400.0 mg/kg/injection, schedule: Q04DX003 (ip), vehicle: Klucel (hydroxypropylcellulose) (HPC)) was 90 % of control.

In the case of `CN(C)CC(C(=O)/C=C/c1ccccc1)C(C)(C)C` (stereo unspecified), the T/C (dose: 60.0 mg/kg/injection, schedule: Q01DX005 (ip), vehicle: saline) was 105 % of control and the T/C (dose: 120.0 mg/kg/injection, schedule: Q01DX005 (ip), vehicle: saline) was 104 % of control.

For `COc1cc2cc3c(c(O)c2c(OC)c1OC)C(=O)CC(C)(C)C3`, the T/C (dose: 25.0 mg/kg/injection, schedule: Q01DX005 (ip), vehicle: saline with Tween-80) was 101 % of control and the T/C [7] was 91 % of control.

`Cc1cc(=O)oc2ccc(C(=O)/C=C/N(C)C)c(O)c12` was tested, and the T/C [8] was 96 % of control, the T/C [9] was 92 % of control and the T/C [10] was 89 % of control.

`CC1(O)c2ccccc2C(C)(O)c2c1ccc1ccccc21` (stereo unspecified) was tested, and the T/C [7] was 95 % of control and the T/C (dose: 100.0 mg/kg/injection, schedule: Q01DX005 (ip), vehicle: saline with Tween-80) was 87 % of control.

For `CCOC(=O)N(C)C`, the T/C [11] was 89 % of control, the T/C [12] was 91 % of control and the T/C [13] was 99 % of control. For the same molecule, the T/C [14] was 105 % of control.

With `COC(=O)c1nn(-c2ccccc2)c(C(=O)OC)c1C(=O)OC` the T/C [15] was 111 % of control, the T/C [16] was 112 % of control and the T/C [17] was 98 % of control.

`CC1CC(C)NC(N=S(=O)(O)c2ccc(N)cc2)[N-]1.[Ag+]` (stereo unspecified) was tested, and the T/C [18] was 106 % of control, the T/C [6] was 100 % of control and the T/C [19] was 94 % of control.

In the case of `CCOC(=O)Nc1c2ccccc2c(NC(=O)OCC)c2ccccc12`, the T/C (dose: 50.0 mg/kg/injection, schedule: Q01DX001 (ip), vehicle: saline with Tween-80) was 105 % of control, the T/C [15] was 100 % of control and the T/C [16] was 102 % of control. The T/C [17] was 96 % of control.

For `[Cl][Pt].c1ccc([PH+](CCC[PH+](c2ccccc2)c2ccccc2)CCC[PH+](c2ccccc2)c2ccccc2)cc1`, the T/C (dose: 12.5 mg/kg/injection, schedule: Q04DX003 (ip), vehicle: saline with Tween-80) was 109 % of control, the T/C (dose: 25.0 mg/kg/injection, schedule: Q04DX003 (ip), vehicle: saline with Tween-80) was 109 % of control and the T/C (dose: 50.0 mg/kg/injection, schedule: Q04DX003 (ip), vehicle: saline with Tween-80) was 97 % of control. For the same molecule, the T/C [2] was 95 % of control and the T/C [4] was 104 % of control.

With `O=c1c(SSc2coc3ccccc3c2=O)coc2ccccc12` the T/C [8] was 116 % of control, the T/C [9] was 102 % of control and the T/C [10] was 106 % of control.

With `O=C1CC2(CCCC2)C(=O)N1c1ccc(N2C(=O)CC3(CCCC3)C2=O)cc1` the T/C [18] was 96 % of control, the T/C [6] was 99 % of control and the T/C [19] was 96 % of control.

`c1ccc2c(c1)C[n+]1ccc3ccccc3c1-c1c3ccccc3cc[n+]1C2` was tested, and the T/C (dose: 12.5 mg/kg/injection, schedule: Q01DX001 (ip), vehicle: saline) was 100 % of control and the T/C (dose: 25.0 mg/kg/injection, schedule: Q01DX001 (ip), vehicle: saline) was 107 % of control.

For `CC1(C)N=C(N)N=C(N)N1c1ccc(OCC(=O)Nc2ccc(S(=O)(=O)F)cc2)c(Cl)c1`, the T/C (dose: 50.0 mg/kg/injection, schedule: Q04DX003 (ip), vehicle: saline) was 159 % of control, the T/C (dose: 100.0 mg/kg/injection, schedule: Q04DX003 (ip), vehicle: saline) was 163 % of control and 175 % of control and the T/C (dose: 200.0 mg/kg/injection, schedule: Q04DX003 (ip), vehicle: saline) was 177 % of control and 190 % of control. For the same molecule, the T/C (dose: 400.0 mg/kg/injection, schedule: Q04DX003 (ip), vehicle: saline) was 115 % of control.

With `CC[N+](CC)(CC)CC(=O)c1ccc(Br)cc1` the T/C (dose: 12.5 mg/kg/injection, schedule: Q01DX009 (ip), vehicle: saline) was 100 % of control, the T/C [11] was 104 % of control and the T/C [12] was 95 % of control.

With `O=C1OC(Cc2ccccc2)=C(Cl)C(Cl)(Cc2ccccc2)C1Cl` (stereo unspecified) the T/C (dose: 100.0 mg/kg/injection, schedule: Q01DX001 (ip), vehicle: Klucel (hydroxypropylcellulose) (HPC)) was 100 % of control and the T/C (dose: 200.0 mg/kg/injection, schedule: Q01DX001 (ip), vehicle: Klucel (hydroxypropylcellulose) (HPC)) was 108 % of control.

`CSC(=S)n1nc(-c2ccccc2)c(N=Nc2ccc(Br)cc2)c1C` was tested, and the T/C (dose: 100.0 mg/kg/injection, schedule: Q04DX002 (ip), vehicle: Klucel (hydroxypropylcellulose) (HPC)) was 98 % of control, the T/C (dose: 200.0 mg/kg/injection, schedule: Q04DX002 (ip), vehicle: Klucel (hydroxypropylcellulose) (HPC)) was 100 % of control and the T/C (dose: 400.0 mg/kg/injection, schedule: Q04DX002 (ip), vehicle: Klucel (hydroxypropylcellulose) (HPC)) was 94 % of control.

`CCCCCCC(/C=C/c1ccc(Cl)c(Cl)c1)=N\NC(N)=S` was tested, and the T/C [12] was 105 % of control, the T/C [13] was 106 % of control and the T/C [14] was 107 % of control.

In the case of `O=C1SC(c2ccccc2)(c2ccccc2)c2cscc21`, the T/C (dose: 25.0 mg/kg/injection, schedule: Q01DX009 (ip), vehicle: saline with Tween-80) was 92 % of control, the T/C (dose: 50.0 mg/kg/injection, schedule: Q01DX009 (ip), vehicle: saline with Tween-80) was 94 % of control and the T/C [1] was 99 % of control. The T/C [3] was 90 % of control.

With `O=C1N[C@H]2[C@H](CS[C@H]2CCCCC(=O)N(CCP(c2ccccc2)c2ccccc2)CCP(c2ccccc2)c2ccccc2)N1` the T/C (dose: 12.5 mg/kg/injection, schedule: Q01DX009 (ip), vehicle: Klucel (hydroxypropylcellulose) (HPC)) was 104 % of control and 111 % of control, the T/C (dose: 25.0 mg/kg/injection, schedule: Q01DX009 (ip), vehicle: Klucel (hydroxypropylcellulose) (HPC)) was 101 % of control and 105 % of control and the T/C [18] was 103 % of control and 104 % of control. The T/C [6] was 108 % of control and 124 % of control, the T/C [19] was 114 % of control and 119 % of control and the T/C [5] was 102 % of control and 114 % of control.
